Assay results taken from patent publication US9695155B2, “Herbicidal substituted pyrimidinyloxy benzene compounds” (E. I. DU PONT DE NEMOURS AND COMPANY, priority 2013, dated 2017).

Experiments:
ragweed [1] = assay: Test A preemergence; assay type: in vivo, Ambrosia elatior
Outline: (§1)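 Compounds in non-phytotoxic solvent with surfactant applied as soil spray preemergence, or postemergence to plants 2-10 cm at one- to two-leaf stage, in loam/sand. After approximately 10 days in greenhouse, injury rated visually versus untreated controls, 0 (no effect) to 100 (complete control).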

kochia = assay: Test A postemergence; assay type: in vivo, Kochia scoparia
Outline: as §1

ragweed [2] = assay: Test A postemergence; assay type: in vivo, Ambrosia elatior
Outline: as §1

blackgrass [3] = assay: Test A postemergence; assay type: in vivo, Alopecurus myosuroides
Outline: as §1

galium = assay: Test A postemergence; assay type: in vivo, Galium aparine
Outline: as §1

blackgrass [4] = assay: Test C preemergence; assay type: in vivo, Alopecurus myosuroides; details: for Blackgrass plant response rating: preemergence
Outline: (§2)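 Preemergence: seeds sown in a loam soil–sand blend and sprayed with test chemical in a non-phytotoxic solvent mixture containing surfactant. Postemergence: plants at 2 to 18 cm (1- to 4-leaf stage) in peat-based medium, treated with the same formulation. Greenhouse 13 to 15 days, then visual rating 0 (no effect) to 100 (complete control).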

wheat, winter = assay: Test C preemergence; assay type: in vivo, Triticum aestivum; details: for Wheat plant response rating: preemergence
Outline: as §2

large (Lg) crabgrass = assay: Test C preemergence; assay type: in vivo, Digitaria sanguinalis; details: for Crabgrass, Large plant response rating: preemergence
Outline: as §2

giant foxtail = assay: Test C preemergence; assay type: in vivo, Setaria faberii; details: for Foxtail, Giant plant response rating: preemergence
Outline: as §2

lambsquarters = assay: Test C preemergence; assay type: in vivo, Chenopodium album; details: for Lambsquarters plant response rating: preemergence
Outline: as §2

yellow nutsedge = assay: Test C preemergence; assay type: in vivo, Cyperus esculentus; details: for Nutsedge, Yellow plant response rating: preemergence
Outline: as §2

pigweed = assay: Test C preemergence; assay type: in vivo, Amaranthus retroflexus; details: for Pigweed plant response rating: preemergence
Outline: as §2

ragweed [5] = assay: Test C preemergence; assay type: in vivo, Ambrosia elatior; details: for Ragweed plant response rating: preemergence
Outline: as §2

soybean = assay: Test C preemergence; assay type: in vivo, Glycine max; details: for Soybean plant response rating: preemergence
Outline: as §2

barnyardgrass = assay: Test C preemergence; assay type: in vivo, Echinochloa crus-galli; details: for Barnyardgrass plant response rating: preemergence
Outline: as §2

oilseed rape = assay: Test C preemergence; assay type: in vivo, Brassica napus; details: for Oilseed Rape plant response rating: preemergence
Outline: as §2

waterhemp = assay: Test C preemergence; assay type: in vivo, Amaranthus rudis; details: for Waterhemp plant response rating: preemergence
Outline: as §2

velvetleaf = assay: Test C preemergence; assay type: in vivo, Abutilon theophrasti; details: for Velvetleaf plant response rating: preemergence
Outline: as §2

[6] = 500 g ai/ha, 0 to 100 scale where 0 is no effect and 100 is complete control
[7] = 125 g ai/ha, 0 to 100 scale, 0 no effect, 100 complete control
[8] = 16 g ai/ha, scale 0 to 100 (0 no effect, 100 complete control)
[9] = 125 g ai/ha, scale 0 (no effect) to 100 (complete control)
[10] = Preemergence, 62 g ai/ha, scale 0 to 100, 0 no effect, 100 complete control

N#Cc1cnn(-c2c(Oc3ncc(F)cn3)cccc2C(F)F)c1 [Compound 240]
Ragweed plant response rating (0 to 100 scale) (ragweed [1]; 125 g ai/ha): 90
Ragweed plant response rating (ragweed [1]; [6]): 100
Plant response rating, Kochia (kochia; [7]): 100
Plant response rating, Kochia (kochia; [6]): 60
Plant response rating, Ragweed (ragweed [2]; [7]): 100
Plant response rating, Ragweed (ragweed [2]; [6]): 100
Plant response rating, Blackgrass (blackgrass [3]; [7]): 90
Plant response rating, Blackgrass (blackgrass [3]; [6]): 100
Plant response rating, Galium (galium; [7]): 100
Plant response rating, Galium (galium; [6]): 100
Blackgrass plant response rating (blackgrass [4]; [8]): 0
Blackgrass plant response rating (blackgrass [4]; [9]): 95
Plant response rating, Blackgrass (blackgrass [4]; [10]): 95
Wheat plant response rating (wheat, winter; [8]): 0
Wheat plant response rating (wheat, winter; [9]): 5
Plant response rating, Wheat (wheat, winter; [10]): 0
Crabgrass, Large plant response rating (large (Lg) crabgrass; [8]): 75
Crabgrass, Large plant response rating (large (Lg) crabgrass; [9]): 100
Plant response rating, Crabgrass, Large (large (Lg) crabgrass; [10]): 100
Foxtail, Giant plant response rating (giant foxtail; [8]): 10
Foxtail, Giant plant response rating (giant foxtail; [9]): 100
Plant response rating, Foxtail, Giant (giant foxtail; [10]): 100
Lambsquarters plant response rating (lambsquarters; [8]): 70
Lambsquarters plant response rating (lambsquarters; [9]): 100
Plant response rating, Lambsquarters (lambsquarters; [10]): 100
Nutsedge, Yellow plant response rating (yellow nutsedge; [8]): 0
Nutsedge, Yellow plant response rating (yellow nutsedge; [9]): 40
Plant response rating, Nutsedge, Yellow (yellow nutsedge; [10]): 15
Pigweed plant response rating (pigweed; [8]): 5
Pigweed plant response rating (pigweed; [9]): 65
Plant response rating, Pigweed (pigweed; [10]): 55
Ragweed plant response rating (ragweed [5]; [8]): 10
Ragweed plant response rating (ragweed [5]; [9]): 80
Plant response rating, Ragweed (ragweed [5]; [10]): 100
Soybean plant response rating (soybean; [8]): 40
Soybean plant response rating (soybean; [9]): 98
Plant response rating, Soybean (soybean; [10]): 85
Barnyardgrass plant response rating (barnyardgrass; [8]): 5
Barnyardgrass plant response rating (barnyardgrass; [9]): 100
Plant response rating, Barnyardgrass (barnyardgrass; [10]): 60
Oilseed Rape plant response rating (oilseed rape; [8]): 70
Oilseed Rape plant response rating (oilseed rape; [9]): 100
Plant response rating, Oilseed Rape (oilseed rape; [10]): 100
Waterhemp plant response rating (waterhemp; [8]): 50
Waterhemp plant response rating (waterhemp; [9]): 100
Plant response rating, Waterhemp (waterhemp; [10]): 100
Velvetleaf plant response rating (velvetleaf; [8]): 25
Velvetleaf plant response rating (velvetleaf; [9]): 85
Plant response rating, Velvetleaf (velvetleaf; [10]): 80
